Assay results: ChEMBL document CHEMBL1151605, “2-Heterocyclic indole-3-sulfones as inhibitors of HIV-1 reverse transcriptase” (Bioorg Med Chem Lett, 1995)

What was measured:
MT4 = test: Antiviral activity in cell culture tested ex vivo in MT-4 cells using the IIIb strain of HIV-1; assay type: functional; conditions: Homo sapiens, read-out: CIC95
[1] = biological target: Human immunodeficiency virus type 1 reverse transcriptase (Human immunodeficiency virus 1, UniProt Q72547, K103N); test: Inhibitory activity against K103N mutant of HIV-1 reverse transcriptase
[2] = biological target: Human immunodeficiency virus type 1 reverse transcriptase (Human immunodeficiency virus 1, UniProt Q72547, K103N/Y181C); test: Inhibitory activity against K103N/Y181C double mutant of HIV-1 reverse transcriptase

Structure (SMILES) | IC95 (MT4) [nM] | IC50 [1] [nM] | IC50 [2] [nM]
Cc1cnc(-c2[nH]c3ccc(Cl)cc3c2S(=O)(=O)c2ccccc2)[nH]1 | 12 |  | 
Nc1nc(-c2[nH]c3ccc(Cl)cc3c2S(=O)(=O)c2ccccc2)cs1 | > 200 |  | 
O=S(=O)(c1ccccc1)c1c(-c2nc3c([nH]2)CCCC3)[nH]c2ccc(Cl)cc12 | 50 |  | 
O=S(=O)(c1ccccc1)c1c(-c2ncc[nH]2)[nH]c2ccc(Cl)cc12 | 2 |  | 
CCc1nc(-c2[nH]c3ccc(Cl)cc3c2S(=O)(=O)c2ccccc2)[nH]c1CC | 50 |  | 
Cc1nc(-c2[nH]c3ccc(Cl)cc3c2S(=O)(=O)c2ccccc2)[nH]c1C | 12 | 22 | > 30000
O=S(=O)(c1ccccc1)c1c(C2=NCCS2)[nH]c2ccc(Cl)cc12 |  | 1250 | 
CCCc1[nH]c(-c2[nH]c3ccc(Cl)cc3c2S(=O)(=O)c2ccccc2)nc1C | 50 |  | 
